According to patent US10160971B2, “Methods of modulating WARS2” (NATIONAL UNIVERSITY OF SINGAPORE, priority 2014, dated 2018):
Residues, ends and D or L forms follow the SMILES beside them. *: point of attachment. Cbz = O=C(OCc1ccccc1)*

Experiments:
[1] = test system: RPL14a; assay: Loss of RPL14a on WARS2 over-expression, reversal by proteasome inhibitor; type: cell-based
Protocol: Cells were lysed in cell lysis buffer (9803, Cell Signaling) containing protease inhibitor (Sigma) and phosphatase inhibitor (Halt Phosphase inhibitor Cocktail, Thermo Scientific) and PMSF (0.5 mM Active Motif). Cell lysate was then briefly sonicated and centrifuged for 10 minutes at 14,000 g (4° C.). Supernatants were retained and protein concentrations were determined using the bicinchoninic acid assay with bovine serum albumin standards. Protein samples (20 μg) were separated on 10% or 13% SDS-polyacrylamide gels, transferred to nitrocellulose membranes, and probed with antibodies as described in the figure legends. Immunoreactive bands were visualized with a horseradish peroxidase-conjugated secondary antibody using Peroxide and LumiGlo reagents (Cell Signaling).

[2] = test system: WARS secretion; assay: WARS secretion in HUVEC cell media; type: cell-based, human; details: HUVEC cells
Protocol: Human embryonic kidney (HEK) 293 cells were maintained in DMEM supplemented with 10% foetal calf serum and 100 U/ml penicillin and 100 μg/ml streptomycin. Human umbilical vein endothelial (HUVEC) cells and medium (EBM- and EBM-2 single Quats) were purchased from Lonza and used prior to passage 7. For plasmid transfections (for HEK293), cells were seeded a day before at 70% confluence and lipofectamine […] (InvitroGene) transfection reagents were used according to the company's instruction. For HUVEC transfection, Polyplus jetPEI-HUVEC transfection reagent (POLYPLUS-TRANSFECTION Inc. New York) was used according to the company's instruction. For gene transfer, HUVEC were grown to 80% confluence in 6-well plates or T75 flasks. Transduction of cells was performed with a multiplicity of infection (MOI) of 200 plaque-forming units (pfu) in a total volume of 1 ml (6-well plates) or 10 ml (T75 flasks) in HUVEC growth medium. […]
HUVEC cells were seeded in 6-well plates. […] The knockdown efficacy could not be determined by western blot since no antibody against WARS2 can detect endogenous WARS2, although two anti-WARS2 antibodies we made can detect WARS2 in lysates from cells expressing WARS2-flag. […]

[3] = target: T1, human cytosolic WARS (Homo sapiens, UniProt P23381); assay: WARS AMP-Glo enzyme assay; type: biochemical; details: indolmycin 10 micromolar; enzyme 200 nM; 37° C. one hour
T1 sequence (P23381 1-471): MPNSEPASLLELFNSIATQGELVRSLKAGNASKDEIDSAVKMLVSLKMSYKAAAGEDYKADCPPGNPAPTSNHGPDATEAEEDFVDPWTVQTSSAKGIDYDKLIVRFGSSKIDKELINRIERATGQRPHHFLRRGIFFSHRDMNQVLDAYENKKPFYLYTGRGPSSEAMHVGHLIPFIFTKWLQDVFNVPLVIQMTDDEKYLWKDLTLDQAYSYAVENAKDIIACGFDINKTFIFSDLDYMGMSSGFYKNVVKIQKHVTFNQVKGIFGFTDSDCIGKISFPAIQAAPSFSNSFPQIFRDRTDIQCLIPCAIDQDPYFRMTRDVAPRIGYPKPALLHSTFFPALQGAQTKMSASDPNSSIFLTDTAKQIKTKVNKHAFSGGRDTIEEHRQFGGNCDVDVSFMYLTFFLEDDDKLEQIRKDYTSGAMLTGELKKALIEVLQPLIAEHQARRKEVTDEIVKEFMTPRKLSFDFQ
Protocol: (§1) The WARS and WARS2 enzyme assay was performed using an ATP depletion assay based on a chemilumines optimized with the AMP-Glo™ reagent (Promega) using 96-well format assay. Reaction buffer contained 25 mM Tris-HCL pH7.2, 10 mM MgCl2, 50 mM KCl, 2.5 mM dithiothreitol, 0.1 mg/mL bovine serum albumin, 0.2 mM spermine, 10 U/mL pyrophosphatase and enzyme concentration used was 200 nM. Substrate concentrations were as follows: L-tryptophan 100 μM, bulk E. coli tRNA (Sigma) 200 μg/mL and ATP 100 μM. Reaction was carried out at 37° C. for one hour, followed by adding reagent I (AMP-glo kit). The plate was incubated at room temperature for another hour. At the end of the hour the AMP detection solution was added to all the samples and incubated for one hour at room temperature. Data was collected by measuring the luminescence with the Infinite M200 microplate Reader (Tecan). Indolmycin was added at 10 micromolar concentration where indicated.

[4] = target: T2, human mitochondrial WARS2 (Homo sapiens, UniProt Q9UGM6); assay: WARS2 AMP-Glo enzyme assay; type: biochemical; details: indolmycin 10 micromolar; enzyme 200 nM; 37° C. one hour
T2 construct: GST (inferred from GSH-bead purification; made in house; own inference)
T2 sequence (Q9UGM6 19-360): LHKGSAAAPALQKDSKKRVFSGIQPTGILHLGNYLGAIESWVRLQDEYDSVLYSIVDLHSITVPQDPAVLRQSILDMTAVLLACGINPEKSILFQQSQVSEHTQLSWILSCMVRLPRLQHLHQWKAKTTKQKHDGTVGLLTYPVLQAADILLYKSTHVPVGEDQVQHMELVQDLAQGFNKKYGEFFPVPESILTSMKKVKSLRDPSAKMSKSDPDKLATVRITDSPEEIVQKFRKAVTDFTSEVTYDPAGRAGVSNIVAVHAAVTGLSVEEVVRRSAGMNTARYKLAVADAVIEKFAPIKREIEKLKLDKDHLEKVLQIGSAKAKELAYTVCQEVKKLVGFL
Protocol: as §1

[5] = test system: Wars2; assay: In vivo knock down of Wars2 in rat eye using cholesterol modified siRNA; details: F344 rats; 50 μg intravitreously; 48 hours; versus non-targeting siRNA in contralateral eye
Protocol: Both non-targeting (NT) siRNA and siWars2 were purchased from Dharmacon and formulated in the sterile siRNA buffer provided. Fifty (50) μg of siWars2 was injected intravitreously into one eye of each of three F344 rats in a total volume of 5 μl. The same dose of the NT control siRNA was injected into the contralateral eye of each animal. Retina and choroid were collected after 48 hours, and total RNA was extracted by Trizol (Ambion). cDNA was then synthesized according to the manufacturer's protocol (BioRad).
Real time PCR reactions to measure Wars2 expression were performed with the SYBRgreen mastermix (Qiagen) and normalized to GAPDH mRNA level by using the following primers: […]

[6] = test system: LASER-induced choroidal neovascularization (CNV); assay: Rat model of LASER-induced choroidal neovascularization (CNV); type: in vivo; details: Brown Norway rats; bilateral intravitreal injection Day 3 (siRNA 100 μg/eye, Ab 5 μg/eye); fluorescein angiography Day 22
Protocol: Non-targeting siRNA (negative control), Wars2 siRNA (test agent), and anti-VEGF Ab (positive control) were administered intravitreously into the eyes of Brown Norway female rats aged 6-8 weeks, according to the following design: • Day 1: Bilateral Laser treatment to produce three (3) lesions per eye • Day 3: Bilateral intravitreal injection of negative control, positive control, or test agent • Day 22: In-vivo fluorescein angiography • Day 22: Enucleation of eyes and fixation for future histological analyses • Three (3) groups of five (5) rats were used, as set out in Table 4.
Animals were dilated with 1% Cyclogyl solution and protected from light. Following observable dilation, the animals were sedated with ketamine/xylazine. The fundus of sedated animals was observed and recorded using a Micron III small animal funduscope (Phoenix Research). Laser treatments were performed using a thermal laser which was connected through the Micron III custom laser attachment. […] The resultant fundus images were recorded and evaluated to confirm that the laser had successfully produced a bubble through the Bruch's membrane. […]
All TIFF images were quantified using computerized image-analysis software (ImageJ, NIH, USA). Lesions were then individually traced free-hand in order to quantify the area in pixels and the colour fundus photos were used as a reference for lesion location. […]

[7] = test system: human WARS2 mRNA; assay: siWARS2 knock down in HEK 293 (QPCR); type: cell-based; details: non targeting control = 1; for WARS2 mRNA expression, Experiment 1 / WARS2 mRNA expression, Experiment 2 / WARS2 mRNA expression, Experiment 3 / WARS2 mRNA expression, Experiment 4 / WARS2 mRNA expression, Experiment 5: 120 nM siRNA, QPCR normalized to GAPDH (ddCt); for WARS2 mRNA expression, Average: average of 5 experiments
Protocol: HEK cells were seeded the day before transfection on 10 cm dish. At a density of ˜50%, transfection was performed using RNAimax (manufacturer's protocol). siRNA was prepared by using a mixture of 120 nM siRNA and 20 μl lipofectamin RNAimax in 1 ml OPTIMEM. Cells were incubated, washed 1× with PBS, and then covered with 5 ml OPTIMEM and the lipofectamin/siRNA mixture added dropwise. Cells were incubated (6 h) and media then changed to (DMEM/10% FBS). RNA was extracted as per protocol (Qiagen). RNA quantification was assessed using Nanodrop and the quality was determined based on OD ratio 260 nm/280 nm. Reverse transcription was performed using 1 μg RNA (Biorad iScript™ cDNA synthesis protocol) and QPCR performed using the QuantiFAST SYBR green protocol.
All samples were analyzed in duplicates and the mean and standard deviation were determined. Specificity of the amplification was determined by a melting curve ranging from 60-95° C. Normalization to GAPDH was performed using the standard ddCt method.

Molecule	WARS2 mRNA expression, Experiment 1 [7]	WARS2 mRNA expression, Experiment 2 [7]	WARS2 mRNA expression, Experiment 3 [7]	WARS2 mRNA expression, Experiment 4 [7]	WARS2 mRNA expression, Experiment 5 [7]	WARS2 mRNA expression, Average [7]	further results
CC(C)C[C@@H](C=O)NC(=O)[C@H](CC(C)C)NC(=O)[C@H](CC(C)C)NC(=O)OCc1ccccc1 [MG132] (Cbz-Leu-Leu-Leu-aldehyde)	–	–	–	–	–	–	loss of RPL14a caused by over-expression of WARS2 [1]: reversed
C[C@H]1CCC/C=C/[C@@H]2C[C@H](O)C[C@H]2[C@H](O)/C=C/C(=O)O1 [brefeldin A]	–	–	–	–	–	–	WARS secretion in presence of inhibitor of golgi-mediated secretion [2]: No effect
CN=C1NC(=O)[C@H]([C@H](C)c2c[nH]c3ccccc23)O1 [indolmycin]	–	–	–	–	–	–	inhibition of WARS enzyme activity [3]: not human cytosolic WARS activity; inhibition of WARS2 enzyme activity [4]: inhibited human mitochondrial WARS2
Wars2 siRNA: Rat Wars2 siRNA from Dharmacon: sense 5′-GCUCCAAUCAGAAGUGAUU-3′ (SEQ ID NO: 48), antisense 5′-UCACUUCUGAUUGGAGCUU-3′ (SEQ ID NO: 49) (cholesterol-modified siRNA, position of cholesterol not given here)	–	–	–	–	–	–	Wars2 expression in retina and choroid [5]: greater inhibition of Wars2 expression; extent of neovascularization [6]: significant reduction in the extent of neovascularization
siRNA 1: Sense 5′-GCAUUCAACCUACAGGAAU-3′ (SEQ ID NO: 50), antisense 5′-AUUCCUGUAGGUUGAAUGC-3′ (SEQ ID NO: 51) (listed as RNA, chemistry not given here)	0.26	0.13	0.18	0.13	0.14	0.17	–
siRNA 2: Sense 5′-CCGACAUUCUGUUGUACAA-3′ (SEQ ID NO: 52), antisense 5′-UUGUACAACAGAAUGUCGG-3′ (SEQ ID NO: 53) (listed as RNA, chemistry not given here)	0.47	0.14	0.13	0.11	0.09	0.19	–
siRNA 3: Sense 5′-GCUGGACAAGGACCAUUUA-3′ (SEQ ID NO: 54), antisense 5′-UAAAUGGUCCUUGUCCAGC-3′ (SEQ ID NO: 55) (listed as RNA, chemistry not given here)	0.43	0.22	0.43	0.37	0.30	0.35	–
